According to patent publication US20230172990A1, “EXTRACELLULAR VESICLE COMPOSITIONS AND THE USE THEREOF IN THE TREATMENT OF SKIN CONDITIONS AND IN IMMUNE MODULATION” (priority 2020, published 2023):

How the values were obtained:
elderly AT-MSCs [1] = experiment: Intracellular ROS level (H2-DCFDA fluorescence) in AT-MSCs; assay type: cell-based, human; conditions: 20 μM Eda; for ROS levels in elderly AT-MSCs after 24 hours of culture with agent: 1 mM NAC, 2 μM AA
Experimental: The expression of ROS in infant- and elderly-derived ATMSCs was evaluated. The intracellular ROS level was measured using 2′,7′-dichlorodihydrofluorescein diacetate (H2-DCFDA, Invitrogen) according to the manufacturer's instructions. Briefly, after reaching 80% confluence, the ATMSCs were washed with PBS and incubated with PBS containing 10 μM H2-DCFDA at 37° C. for 30 minutes. The fluorescence intensity was analyzed by absorbance at 495 nm and 525 nm wavelengths using a photoemission spectrophotometer (Corona Electric, Japan).
(§1) While not wishing to be bound by theory, the oxidative stress and resulting accumulation of ROS are believed to relate to the impaired function of elderly AT-MSCs. The effects of anti-oxidative agents on elderly AT-MSCs were tested and the expression of ROS in elderly AT-MSCs were measured following culture in the presence of 20 μM Edaravone (Eda), 1 mM N-acetylcysteine (NAC), or 2 μM Ascorbic Acid (AA), respectively. […] The concentration of Eda, NAC and AA was maintained in the culture media throughout the culture period. The effects of anti-oxidative agents on cell senescence were also investigated. Cell senescence was assessed by measuring the activity of senescence associated (SA) β-galactosidase following 6 or 12 passages of culture in the presence of 20 μM Eda, 1 mM NAC, or 2 μM AA. […] In FIGS. 3A, 3B and 3C, *=P<0.05, **=P<0.01, and ns=not significant.

elderly AT-MSCs [2] = experiment: Cell senescence, senescence associated (SA) β-galactosidase activity; assay type: cell-based, human; conditions: 6 or 12 passages of culture with 20 μM Eda
Experimental: as §1

[3] = system: streptozotocin-induced diabetic mouse punch biopsy model; experiment: Mouse punch biopsy wound healing model (streptozotocin-induced diabetic mice); assay type: in vivo; conditions: elderly AT-MSCs cultured 24 hours with 20 μM Eda, 1 mM NAC or 2 μM AA
Experimental: The effect of the anti-oxidative agents Eda, NAC and AA on the wound healing ability of elderly AT-MSCs was investigated using the mouse punch biopsy model, as described in Dunn et al., J Vis Exp. (75): 50265, 2013). Briefly, 7-week-old male C57BL/6 mice were anesthetized using avertin and shaved. Two wounds were established using 5 mm biopsy punch in the mice upper dorsal area. MSCs (5×10^5 cells/wound) or EVs (4 μg/wound) were injected at 4 points surrounding the punch area. Each mouse had two punched wounds, (1) PBS and (2) cells or EV-treatment. A splint was stitched to the surrounding wound areas and covered with Tegaderm (3M, USA), and the wound sites were observed every day. The images of the wound areas were captured, and the necrotic areas were analyzed using Image J software (NIH, MD).

SMILES | ROS levels in elderly AT-MSCs after 24 hours of culture with agent (elderly AT-MSCs [1]) | ROS reducing effect in elderly AT-MSCs following 1 cell passage (elderly AT-MSCs [1]; 1 cell passage) | (SA) β-galactosidase activity (cell senescence) (elderly AT-MSCs [2]) | Wound healing ability of elderly AT-MSCs cultured with the agent [3]
CC1=NN(c2ccccc2)C(=O)C1 [Eda, Edaravone] | reduced ROS levels | ROS reducing effects of Eda were evident | reduced (SA) β-galactosidase activity | significantly improved wound healing
O=C1O[C@H]([C@@H](O)CO)C(O)=C1O [AA, Ascorbic Acid] | reduced ROS levels |  |  | no effect
CC(=O)N[C@@H](CS)C(=O)O [NAC, N-acetylcysteine] | reduced ROS levels |  |  | no effect
